In brackets after ≈: the same amount, converted by molar mass. *1 amine or outer side, *2 acyl side, *3 side chain or, on linkers, in order; H or OH if unused. Where a SMILES comes first, the peptide text is derived from it. Bridges are numbered along the chain shown (N, C = ends). [ ]: non-standard residue; d: D form. The star is where a group is joined. Phe(3R-OH) = O=C([C@@H](N[*:1])[C@H](O[*:3])c1ccccc1)[*:2]; Asn(3S-OH) = NC(=O)[C@@H](O)[C@H](N)C(=O)O; Leu(3R-OH) = CC(C)[C@@H](O)[C@H](N)C(=O)O; Ala(SiMe3) = C[Si](C)(C)C[C@H](N)C(=O)O; dPhe(2-F) = N[C@H](Cc1ccccc1F)C(=O)O; Ala(cPr) = N[C@@H](CC1CC1)C(=O)O; tBuAla = CC(C)(C)C[C@H](N)C(=O)O; aThr = C[C@H](O)[C@H](N)C(=O)O; Aic = NC1(C(=O)O)Cc2ccccc2C1; tBu = CC(C)(C)*
How the values were obtained:
E. faecalis ICB 27159 = assay type: cell-based, Enterococcus faecalis; conditions: ICB 27159
Description: (§1) Determination of the Minimum Inhibitory Concentration (MIC):
(§2) The MIC is determined in the liquid dilution test in accordance with the NCCLS guidelines. Overnight cultures of Staphylococcus aureus 133, Enterococcus faecalis 27159, E. faecium 4147 and Streptococcus pneumoniae G9a are incubated with the desired test substances in a 1:2 dilution series. The MIC determination is carried out with a cell count of 10^5 microbes per ml in Isosensitest medium (Difco, Irvine/USA), with the exception of S. pneumoniae which is tested in BHI broth (Difco, Irvine/USA) with 10% bovine serum with a cell count of 10^6 microbes per ml. The cultures are incubated at 37° C. for 18-24 hours, S. pneumoniae in the presence of 10% CO2.
(§3) The MIC is defined as the lowest concentration of each substance at which visible bacterial growth no longer occurs. The MIC values are reported in μg/ml.

[1] = tested on: Streptococcus pneumoniae G9a; assay type: cell-based; conditions: G9a
Description: as §1, §2, §3

[2] = tested on: Staphylococcus aureus 133; assay type: cell-based; conditions: 133
Description: as §1, §2, §3

E. faecium L4001 = assay type: cell-based, Enterococcus faecium; conditions: L4001

CC[C@H](C)[C@@H]1NC(=O)[C@@H](CCCNC(=N)N)NC(=O)[C@H](CC(C)C)NC(=O)[C@H]([C@H](O)C(C)C)NC(=O)[C@@H](NC(=O)[C@H](CC2CC2)NC(=O)[C@H](N)CC(C)C)[C@@H](c2ccccc2)OC(=O)[C@H](CO)NC(=O)[C@H]([C@H](O)C(N)=O)NC(=O)CNC(=O)[C@H]([C@H](C)O)NC1=O.O=C(O)C(F)(F)F.O=C(O)C(F)(F)F [Example 1, D-leucyl-N^1-{(3S,6S,12S,15S,18R,21S,24S,27S,28R)-6-[(1S)-2-amino-1-hydroxy-2-oxoethyl]-18-(3-{[amino(imino)methyl]amino}propyl)-12-[(1S)-1-hydroxyethyl]-3-(hydroxymethyl)-24-[(1R)-1-hydroxy-2-methylpropyl]-21-isobutyl-15-[(1S)-1-methylpropyl]-2,5,8,11,14,17,20,23,26-nonaoxo-28-phenyl-1-oxa-4,7,10,13,16,19,22,25-octaazacyclooctacosan-27-yl}-3-cyclopropyl-L-alaninamide bistrifluoroacetate] (H-[dL][Ala(cPr)][Phe(3R-OH)][Leu(3R-OH)]L[dR]I[aThr]G[Asn(3S-OH)]S; ester 3-C)
MIC E. faecalis ICB 27159 (E. faecalis ICB 27159): 0.5 µg/mL
MIC S. pneumoniae [1]: 0.125 µg/mL
MIC S. aureus 133 [2]: 0.125 µg/mL
MIC E. faecium L4001 (E. faecium L4001): 0.5 µg/mL

CC[C@H](C)[C@@H]1NC(=O)[C@@H](CCCNC(=N)N)NC(=O)[C@H](CC(C)C)NC(=O)[C@H]([C@H](O)C(C)C)NC(=O)[C@@H](NC(=O)[C@H](CC(C)C)NC(=O)[C@H](N)CC(C)C)[C@@H](c2ccccc2)OC(=O)[C@H](CO)NC(=O)[C@H]([C@H](O)C(N)=O)NC(=O)CNC(=O)[C@H]([C@H](C)O)NC1=O.O=C(O)C(F)(F)F.O=C(O)C(F)(F)F [Example 1A, D-Leucyl-N^1-{(3S,6S,12S,15S,18R,21S,24S,27S,28R)-6-[(1S)-2-amino-1-hydroxy-2-oxoethyl]-18-(3-{[amino(imino)methyl]amino}propyl)-12-[(1S)-1-hydroxyethyl]-3-(hydroxymethyl)-24-[(1R)-1-hydroxy-2-methylpropyl]-21-isobutyl-15-[(1S)-1-methylpropyl]-2,5,8,11,14,17,20,23,26-nonaoxo-28-phenyl-1-oxa-4,7,10,13,16,19,22,25-octaazacyclooctacosan-27-yl}-L-leucinamide bistrifluoro-acetate, reference compound] (H-[dL]L[Phe(3R-OH)][Leu(3R-OH)]L[dR]I[aThr]G[Asn(3S-OH)]S; ester 3-C)
MIC E. faecalis ICB 27159 (E. faecalis ICB 27159): 1 µg/mL
MIC S. pneumoniae [1]: 0.063 µg/mL
MIC S. aureus 133 [2]: 0.25 µg/mL
MIC E. faecium L4001 (E. faecium L4001): 0.5 µg/mL

CC[C@H](C)[C@@H]1NC(=O)[C@@H](CCCNC(=N)N)NC(=O)[C@H](CC(C)C)NC(=O)[C@H]([C@H](O)C(C)C)NC(=O)[C@@H](NC(=O)[C@H](CC(C)(C)C)NC(=O)[C@H](N)CC(C)C)[C@@H](c2ccccc2)OC(=O)[C@H](CO)NC(=O)[C@H]([C@H](O)C(N)=O)NC(=O)CNC(=O)[C@H]([C@H](C)O)NC1=O [Example 3, D-leucyl-N^1-{(3S,6S,12S,15S,18R,21S,24S,27S,-28R)-6-[(1S)-2-amino-1-hydroxy-2-oxoethyl]-18-(3-{[amino(imino)methyl]amino}propyl)-12-[(1S)-1-hydroxyethyl]-3-(hydroxymethyl)-24-[(1R)-1-hydroxy-2-methylpropyl]-21-isobutyl-15-[(1S)-1-methylpropyl]-2,5,8,11,14,17,20,23,26-nonaoxo-28-phenyl-1-oxa-4,7,10,13,16,19,22,25-octaazacyclooctacosan-27-yl}-3-tert-butyl-L-alaninamide bistrifluoroacetate] (H-[dL][tBuAla][Phe(3R-OH)][Leu(3R-OH)]L[dR]I[aThr]G[Asn(3S-OH)]S; ester 3-C)
MIC E. faecalis ICB 27159 (E. faecalis ICB 27159): 0.25 µg/mL (≈ 0.194 µM)
MIC S. pneumoniae [1]: 0.031 µg/mL (≈ 0.024 µM)
MIC S. aureus 133 [2]: 0.125 µg/mL (≈ 0.0969 µM)
MIC E. faecium L4001 (E. faecium L4001): 0.25 µg/mL (≈ 0.194 µM)

CC[C@H](C)[C@@H]1NC(=O)[C@@H](CCCNC(=N)N)NC(=O)[C@H](CC(C)C)NC(=O)[C@H]([C@H](O)C(C)C)NC(=O)[C@@H](NC(=O)[C@H](CC(C)C)NC(=O)C2(N)Cc3ccccc3C2)[C@@H](c2ccccc2)OC(=O)[C@H](CO)NC(=O)[C@H]([C@H](O)C(N)=O)NC(=O)CNC(=O)[C@H]([C@H](C)O)NC1=O [Example 18, (2-Amino-2,3-dihydro-1H-indenylcarbonyl)-de(1-D-leucyl)lysobactin bistrifluoroacetate] (H-[Aic]L[Phe(3R-OH)][Leu(3R-OH)]L[dR]I[aThr]G[Asn(3S-OH)]S; ester 3-C)
MIC E. faecalis ICB 27159 (E. faecalis ICB 27159): 1 µg/mL (≈ 0.756 µM)
MIC S. pneumoniae [1]: 2 µg/mL (≈ 1.51 µM)
MIC S. aureus 133 [2]: 1 µg/mL (≈ 0.756 µM)
MIC E. faecium L4001 (E. faecium L4001): 1 µg/mL (≈ 0.756 µM)

CC[C@H](C)[C@@H]1NC(=O)[C@@H](CCCNC(=N)N)NC(=O)[C@H](CC(C)C)NC(=O)[C@H]([C@H](O)C(C)C)NC(=O)[C@@H](NC(=O)[C@H](CC(C)C)NC(=O)[C@H](N)Cc2ccccc2F)[C@@H](c2ccccc2)OC(=O)[C@H](CO)NC(=O)[C@H]([C@H](O)C(N)=O)NC(=O)CNC(=O)[C@H]([C@H](C)O)NC1=O [Example 23, (2-Fluoro-D-phenylalanyl)-de(1-D-leucyl)lysobactin bistrifluoroacetate] (H-[dPhe(2-F)]L[Phe(3R-OH)][Leu(3R-OH)]L[dR]I[aThr]G[Asn(3S-OH)]S; ester 3-C)
MIC E. faecalis ICB 27159 (E. faecalis ICB 27159): 1 µg/mL (≈ 0.753 µM)
MIC S. pneumoniae [1]: 0.125 µg/mL (≈ 0.0941 µM)
MIC S. aureus 133 [2]: 0.125 µg/mL (≈ 0.0941 µM)
MIC E. faecium L4001 (E. faecium L4001): 0.5 µg/mL (≈ 0.376 µM)

CC[C@H](C)[C@@H]1NC(=O)[C@@H](CCCNC(=N)N)NC(=O)[C@H](CC(C)C)NC(=O)[C@H]([C@H](O)C(C)C)NC(=O)[C@@H](NC(=O)[C@H](CC(C)C)NC(=O)[C@H](N)CCSC)[C@@H](c2ccccc2)OC(=O)[C@H](CO)NC(=O)[C@H]([C@H](O)C(N)=O)NC(=O)CNC(=O)[C@H]([C@H](C)O)NC1=O [Example 24, D-Methionyl-de(1-D-leucyl)lysobactin bistrifluoroacetate] (H-[dM]L[Phe(3R-OH)][Leu(3R-OH)]L[dR]I[aThr]G[Asn(3S-OH)]S; ester 3-C)
MIC E. faecalis ICB 27159 (E. faecalis ICB 27159): 2 µg/mL (≈ 1.54 µM)
MIC S. pneumoniae [1]: 0.5 µg/mL (≈ 0.386 µM)
MIC S. aureus 133 [2]: 0.25 µg/mL (≈ 0.193 µM)
MIC E. faecium L4001 (E. faecium L4001): 1 µg/mL (≈ 0.772 µM)

CC[C@H](C)[C@@H]1NC(=O)[C@@H](CCCNC(=N)N)NC(=O)[C@H](CC(C)C)NC(=O)[C@H]([C@H](O)C(C)C)NC(=O)[C@@H](NC(=O)[C@H](CC(C)C)NC(=O)[C@@H](N)C[Si](C)(C)C)[C@@H](c2ccccc2)OC(=O)[C@H](CO)NC(=O)[C@H]([C@H](O)C(N)=O)NC(=O)CNC(=O)[C@H]([C@H](C)O)NC1=O [Example 30, [3-(Trimethylsilyl)-L-alanyl]-de(1-D-leucyl)lysobactin bistrifluoroacetate] (H-[Ala(SiMe3)]L[Phe(3R-OH)][Leu(3R-OH)]L[dR]I[aThr]G[Asn(3S-OH)]S; ester 3-C)
MIC E. faecalis ICB 27159 (E. faecalis ICB 27159): 1 µg/mL (≈ 0.765 µM)
MIC S. pneumoniae [1]: 0.25 µg/mL (≈ 0.191 µM)
MIC S. aureus 133 [2]: 0.25 µg/mL (≈ 0.191 µM)
MIC E. faecium L4001 (E. faecium L4001): 0.5 µg/mL (≈ 0.383 µM)

CC[C@H](C)[C@@H]1NC(=O)[C@@H](CCCNC(=N)N)NC(=O)[C@H](CC(C)C)NC(=O)[C@H]([C@H](O)C(C)C)NC(=O)[C@@H](NC(=O)[C@H](CC(C)C)NC(=O)[C@H](N)Cc2ccccc2)[C@@H](c2ccccc2)OC(=O)[C@H](CO)NC(=O)[C@H]([C@H](O)C(N)=O)NC(=O)CNC(=O)[C@H]([C@H](C)O)NC1=O [Example 38, D-Phenylalanyl-de(1-D-leucyl)lysobactin bistrifluoracetate] (H-[dF]L[Phe(3R-OH)][Leu(3R-OH)]L[dR]I[aThr]G[Asn(3S-OH)]S; ester 3-C)
MIC E. faecalis ICB 27159 (E. faecalis ICB 27159): 1 µg/mL (≈ 0.763 µM)
MIC S. pneumoniae [1]: 0.063 µg/mL (≈ 0.0481 µM)
MIC S. aureus 133 [2]: 0.125 µg/mL (≈ 0.0954 µM)
MIC E. faecium L4001 (E. faecium L4001): 0.5 µg/mL (≈ 0.382 µM)

CC[C@H](C)[C@@H]1NC(=O)[C@@H](CCCNC(=N)N)NC(=O)[C@H](CC(C)C)NC(=O)[C@H]([C@H](O)C(C)C)NC(=O)[C@@H](NC(=O)[C@H](CC(C)C)NC(=O)[C@H](N)COC(C)(C)C)[C@@H](c2ccccc2)OC(=O)[C@H](CO)NC(=O)[C@H]([C@H](O)C(N)=O)NC(=O)CNC(=O)[C@H]([C@H](C)O)NC1=O [Example 47, [O-(tert-Butyl)-D-seryl]-de(1-D-leucyl)lysobactin bistrifluoroacetate] (H-[dS](tBu)L[Phe(3R-OH)][Leu(3R-OH)]L[dR]I[aThr]G[Asn(3S-OH)]S; ester 3-C)
MIC E. faecalis ICB 27159 (E. faecalis ICB 27159): 2 µg/mL (≈ 1.53 µM)
MIC S. pneumoniae [1]: 0.25 µg/mL (≈ 0.191 µM)
MIC S. aureus 133 [2]: 0.25 µg/mL (≈ 0.191 µM)
MIC E. faecium L4001 (E. faecium L4001): 1 µg/mL (≈ 0.765 µM)

CC[C@H](C)[C@@H]1NC(=O)[C@@H](CCCNC(=N)N)NC(=O)[C@H](CC(C)C)NC(=O)[C@H]([C@H](O)C(C)C)NC(=O)[C@@H](NC(=O)[C@H](CC(C)C)NC(=O)[C@@H](N)Cc2ccccc2)[C@@H](c2ccccc2)OC(=O)[C@H](CO)NC(=O)[C@H]([C@H](O)C(N)=O)NC(=O)CNC(=O)[C@H]([C@H](C)O)NC1=O [Example 48, L-Phenylalanyl-de(1-D-leucyl)lysobactin bistrifluoroacetate] (H-FL[Phe(3R-OH)][Leu(3R-OH)]L[dR]I[aThr]G[Asn(3S-OH)]S; ester 3-C)
MIC E. faecalis ICB 27159 (E. faecalis ICB 27159): 0.5 µg/mL (≈ 0.382 µM)
MIC S. pneumoniae [1]: 0.125 µg/mL (≈ 0.0954 µM)
MIC S. aureus 133 [2]: 0.125 µg/mL (≈ 0.0954 µM)
MIC E. faecium L4001 (E. faecium L4001): 0.25 µg/mL (≈ 0.191 µM)
